Like-named read-outs stand apart in the source and are kept apart here.
Assays:
[1] = target: T1, Bovine lysyl oxidase (LOX) (Bos taurus, UniProt P33072); test: LOX inhibition assay (fluorometric, cadaverine/Amplex Red/HRP); format: biochemical; details: IC50 class; bovine tendon LOX, cadaverine substrate; read-out: Activity Range LOX
T1 construct: from tissue; host or cells: adult bovine tendon
T1 sequence (P33072 170-418): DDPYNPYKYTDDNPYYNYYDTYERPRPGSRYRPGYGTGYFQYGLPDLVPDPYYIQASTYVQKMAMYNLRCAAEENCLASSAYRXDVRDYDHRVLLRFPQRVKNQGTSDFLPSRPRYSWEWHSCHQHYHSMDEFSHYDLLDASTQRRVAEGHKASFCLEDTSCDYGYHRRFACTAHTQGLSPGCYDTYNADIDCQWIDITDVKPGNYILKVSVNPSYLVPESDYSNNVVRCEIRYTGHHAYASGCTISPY
In short: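 Bovine tendon-extracted LOX was preincubated 30 min at 37 °C with compound. Cadaverine/Amplex Red/HRP was then added and fluorescence (ex530/em600) monitored for 120 min at 37 °C. Progress-curve slopes, background-subtracted against no-protein wells, were normalised to DMSO controls and fitted with a four-parameter variable-slope dose-response model.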

[2] = Permeability study in Caco-2 cell line; format: in vitro ADME; details: human; for efflux ratio at 2 h, 5 μM: Caco-2, pH 7.4; for Papp A→B at 2 h, 5 μM: Caco-2, apical to basolateral; for Papp A→B at 2 h, 5 μM / Papp B→A at 2 h, 5 μM: pH 7.4; for Papp B→A at 2 h, 5 μM: Caco-2, basolateral to apical
Procedure: Caco-2 cell suspensions were dispensed into the inserts of the 96-well HTS Transwell plate and cultivated for 14-18 days. Transepithelial electrical resistance (TEER) across the monolayer was measured using Millicell Epithelial Volt-Ohm measuring system. The Caco-2 plate was then washed twice with pre-warmed HBSS (pH 7.4) and incubated at 37° C. for 30 minutes. To determine the rate of drug transport in the apical to basolateral direction. 5 μM test compound was added to the Transwell insert and the wells in the receiver plate were filled with HBSS (pH 7.4). To determine the rate of drug transport in the basolateral to apical direction, 5 μM test compound was added to the receiver plate wells and then the Transwell inserts were filled with HBSS (pH 7.4). The plates were incubated at 37° C. for 2 hours. 50 μL samples from donor sides and receiver sides were transferred to wells of a new 96-well plate followed by the addition of 4 volume of cold methanol containing internal standards (IS). Samples were centrifuged and the supernatant was used for LC-MS/MS analysis. After the incubation, residue solutions were removed from the Transwell plates, and Lucifer yellow (100 μM) solution was added to each Transwell insert, followed by filling the receiver wells with HBSS. The plates were incubated at 37° C. for 30 minutes. 80 μL samples were removed from the apical and basolateral wells and the fluorescence of Lucifer yellow was measured in a microplate reader with 485 nm excitation and 530 nm emission.

[3] = Microsome stability study; format: in vitro ADME, mouse; details: for half-life at 2 μM / microsomal CLint at 2 μM / CLint scaled at 2 μM: CD-1, pH 7.4; for half-life at 2 μM / microsomal CLint at 2 μM: male mouse liver microsomes 0.5 mg/mL, NADPH; for CLint scaled at 2 μM: male, read-out: Scaled-up CLint; for CLint scaled at 2 μM / Predicted hepatic CL: mouse liver microsomes
Procedure: Pooled CD-1 mouse liver microsomes at 0.5 mg/mL were pre-incubated in phosphate buffer (100 mM, pH 7.4) containing 1 mM NADPH and 3 mM MgCl2 in a 96-well plate for 5 minutes at 37° C. Ultra-pure water was added instead of NADPH in the negative control group to exclude the misleading factor that resulted from instability of chemical itself. The reaction was initiated by adding test compound at the final concentration of 2 μM and incubated at 37° C. Aliquots were taken from the incubation at 0, 15, 30, 45 and 60 minutes followed by the addition of 4 volume of cold acetonitrile containing internal standards. Samples were centrifuged and supernatant was used for LC-MS/MS analysis.

[4] = Caco-2, pH 7.4, Caco-2, apical to basolateral, read-out: Recovery (%)AP-BL
[5] = Caco-2, pH 7.4, Caco-2, basolateral to apical, read-out: Recovery (%)BL-AP

Row | Structure (SMILES) | IC50 [1] [nM] | efflux ratio at 2 h, 5 μM [2] | recovery at 2 h, 5 μM [2, 4] [%] | recovery at 2 h, 5 μM [2, 5] [%] | Papp A→B at 2 h, 5 μM [2] [×10⁻⁶ cm/s] | Papp B→A at 2 h, 5 μM [2] [×10⁻⁶ cm/s] | half-life at 2 μM [3] [min] | microsomal CLint at 2 μM [3] [µL/min/mg] | CLint scaled at 2 μM [3] [mL/min/kg] | Predicted hepatic CL [3] [mL/min/kg]
1 | CS(=O)(=O)N1CCN(C(=O)[C@H]2C[C@@H](c3ccccc3F)CN(S(=O)(=O)c3ccc(CN)s3)C2)CC1.O=C(O)C(F)(F)F (racemic) [Example 91, cis-(1-((5-(Aminomethyl)thiophen-2-yl)sulfonyl)-5-(2-fluorophenyl)piperidin-3-yl)(4-(methylsulfonyl)piperazin-1-yl)methanone 2,2,2-trifluoroacetate] | ≤ 500 | 138 | 68.6 | 78.2 | 0.11 | 15.6 | 24.5 | 56.5 | 247 | 65.98
2 | NCc1ccc(S(=O)(=O)N2C[C@H](C(=O)N3CCOCC3)C[C@H](c3ccccc3)C2)s1 [Example 13B, ((3R,5R)-1-((5-(aminomethyl)thiophen-2-yl)sulfonyl)-5-phenylpiperidin-3-yl)(morpholino)methanone] | ≤ 500 | 24.5 | 76.8 | 78.8 | 1.16 | 28.5 | 79.7 | 17.4 | 76.1 | 41.24

Source: US20230310445A1, “LOX ENZYME INHIBITING METHODS AND COMPOSITIONS” (ANOVIA BIOSCIENCES, INC., priority 2020, published 2023)
